Laboratory results from patent US4945171A, “Xanthene dyes having a fused (C) benzo ring” (Molecular Probes, Inc., priority 1987, dated 1990).

Legend:
[1] = absorption spectra (maxima and extinction coefficients) of benzo[c]xanthene dyes; format: physicochemical; conditions: for ABSORPTION, ACID MAXIMA (second) / EXTINCTION COEFFICIENT, ACID MAXIMA (second) / ABSORPTION, ACID MAXIMA (first) / EXTINCTION COEFFICIENT, ACID MAXIMA (first): acid form; for ABSORPTION, ACID MAXIMA (second) / EXTINCTION COEFFICIENT, ACID MAXIMA (second): longer-wavelength maximum; for ABSORPTION, ACID MAXIMA (first) / EXTINCTION COEFFICIENT, ACID MAXIMA (first): shorter-wavelength maximum; for ABSORPTION, BASE MAXIMUM / EXTINCTION COEFFICIENT, BASE MAXIMUM: base form
Description: (§1) A stock solution was prepared by dissolving 7.6 mg of compound 3 in 2.00 ml methanol. The stock solution was diluted ten-fold into 40 mM pH 9.00 potassium phosphate buffer. Absorbance solutions were prepared by further diluting 25 μl of the aqueous stock solution to 2.025 ml with 40 mM potassium phosphate buffers of the appropriate pH.

[2] = fluorescence excitation/emission and quantum yield of benzo[c]xanthene dyes; format: physicochemical; conditions: for FLUORESCENCE, ACID EMIT / FLUORESCENCE, ACID EXCITE: acid form; for FLUORESCENCE, BASE EMIT / FLUORESCENCE, BASE EXCITE: base form; for APPROX. QY. (quantum yield): relative to fluorescein or sulforhodamine 101
Text: Fluorescence data was obtained on a Perkin-Elmer Model 650-40 Fluorescence Spectrophotometer with a Perkin-Elmer/Hitachi 057 X-Y Recorder using a tenfold dilution of the absorbance solutions. An estimate of the quantum yield of the dyes relative to fluorescein or sulforhodamine 101 was obtained by integrating the emission spectrum of the dye excited at the same optical density as the standard.

[3] = physchem; conditions: 40 mm potassium phosphate buffer
Description: as §1

[4] = determination of the pKa for the benzo[c]xanthene indicators from plot of absorbance ratios versus pH; conditions: 40 mM potassium phosphate buffers
Description: as §1

[5] = tested on: cells; conditions: cited from earlier work
[6] = potassium phosphate buffer, pH 7.0

| Compound | ABSORPTION, ACID MAXIMA (second) [1] | EXTINCTION COEFFICIENT, ACID MAXIMA (second) [1] | ABSORPTION, ACID MAXIMA (first) [1] | EXTINCTION COEFFICIENT, ACID MAXIMA (first) [1] | ABSORPTION, BASE MAXIMUM [1] | EXTINCTION COEFFICIENT, BASE MAXIMUM [1] | FLUORESCENCE, ACID EMIT [2] | FLUORESCENCE, ACID EXCITE [2] | FLUORESCENCE, BASE EMIT [2] | FLUORESCENCE, BASE EXCITE [2] | APPROX. QY. (quantum yield) [2] | pKa [3] | pKa [4] | Absorbance maximum (first) [1, 6] | Absorbance maximum (second) [1, 6] | extinction coefficient (first maximum) [1, 6] | extinction coefficient (second maximum) [1, 6] | membrane permeability [5] | retention by cells ([5]; due to its high membrane permeability) |
| --- | --- | --- | --- | --- | --- | --- | --- | --- | --- | --- | --- | --- | --- | --- | --- | --- | --- | --- | --- |
| CN(C)c1ccc2c(c1)Oc1c(ccc3cc(O)ccc13)C21OC(=O)c2ccccc21 (centres unmarked) [Compound 5] | 544 NM | 21.6 10^3 cm^-1 M^-1 | 515 NM | 17.7 10^3 cm^-1 M^-1 | 573 NM | 44.1 10^3 cm^-1 M^-1 | 585 NM | 549 NM | 632 NM | 582 NM | ~0.19 | 7.6 |  |  |  |  |  |  |  |
| O=C(O)c1ccc2c(c1)C1(OC2=O)c2cc(Cl)c(O)cc2Oc2c1ccc1cc(O)ccc21 (centres unmarked) [Compound 3] | 514 NM | 25.3 10^3 cm^-1 M^-1 | 485 NM | 20.5 10^3 cm^-1 M^-1 | 547 NM | 40.4 10^3 cm^-1 M^-1 | 546 NM | 517 NM | 630 NM | 552 NM | ~0.48 | 7.65 |  |  |  |  |  |  |  |
| CCNc1cc2c(cc1C)C1(OC(=O)c3ccccc31)c1ccc3cc(O)ccc3c1O2 (centres unmarked) [Compound 7] | 522 NM |  | 495 NM |  | 552 NM |  | 552 NM | 525 NM | 629 NM | 558 NM | ~0.38 | 7.7 |  |  |  |  |  |  |  |
| CC(=O)Oc1ccc2c3c(ccc2c1)C1(OC(=O)c2cc(C(=O)O)ccc21)c1ccc(N(C)C)cc1O3 (centres unmarked) [Compound 14, 3-acetoxy-5'-carboxy-10-dimethylamino-spiro[7H-benzo[c]xanthene-7,1'(3'H)-isobenzofuran]-3'-one] |  |  |  |  |  |  |  |  |  |  |  |  |  | 511 nm | 540 nm | 24,100 cm^-1 M^-1 | 21,700 cm^-1 M^-1 |  |  |
| N#Cc1c(O)ccc(O)c1C#N [Dihydroxyphthalonitrile] |  |  |  |  |  |  |  |  |  |  |  |  |  |  |  |  |  | high membrane permeability | not well retained by cells |
| CCN(CC)c1ccc2c(c1)Oc1c(ccc3cc(O)ccc13)C21OC(=O)c2ccc(C(=O)O)cc21 (centres unmarked) [Compound 9] | 550 NM | 29.7 10^3 cm^-1 M^-1 | 517 NM | 26.2 10^3 cm^-1 M^-1 | 577 NM | 51.5 10^3 cm^-1 M^-1 | 583 NM | 558 NM | 633 NM | 582 NM | ~0.24 | 7.75 |  |  |  |  |  |  |  |
| O=C1OC2(c3ccc(O)cc3Oc3c2ccc2cc(O)ccc32)c2ccccc21 (centres unmarked) [Compound 1, 3,10-dihydroxy-spiro[7H-benzo[c]xanthen-7,1'(3'H)-isobenzofuran]-3'-one] |  | 28.2 10^3 cm^-1 M^-1 | 480 NM | 24.8 10^3 cm^-1 M^-1 | 537 NM | 49.7 10^3 cm^-1 M^-1 | 539 NM | 513 NM | 618 NM | 540 NM | ~0.34 | 7.85 |  |  |  |  |  |  |  |
| CCN(CC)c1ccc2c(c1)Oc1c(ccc3cc(O)ccc13)C21OC(=O)c2ccccc21 (centres unmarked) [Compound 6] | 550 NM | 24.4 10^3 cm^-1 M^-1 | 518 NM | 20.5 10^3 cm^-1 M^-1 | 577 NM | 46.4 10^3 cm^-1 M^-1 | 583 NM | 557 NM | 632 NM | 582 NM | ~0.23 | 7.5 |  |  |  |  |  |  |  |

Continued, in another order:

| ABSORPTION, ACID MAXIMA (second) [1] | EXTINCTION COEFFICIENT, ACID MAXIMA (second) [1] | ABSORPTION, ACID MAXIMA (first) [1] | EXTINCTION COEFFICIENT, ACID MAXIMA (first) [1] | ABSORPTION, BASE MAXIMUM [1] | EXTINCTION COEFFICIENT, BASE MAXIMUM [1] | FLUORESCENCE, ACID EMIT [2] | FLUORESCENCE, ACID EXCITE [2] | FLUORESCENCE, BASE EMIT [2] | FLUORESCENCE, BASE EXCITE [2] | APPROX. QY. (quantum yield) [2] | pKa [3] | pKa [4] | Compound | Absorbance maximum (first) [1, 6] | Absorbance maximum (second) [1, 6] | extinction coefficient (first maximum) [1, 6] | extinction coefficient (second maximum) [1, 6] | membrane permeability [5] | retention by cells ([5]; due to its high membrane permeability) |
| --- | --- | --- | --- | --- | --- | --- | --- | --- | --- | --- | --- | --- | --- | --- | --- | --- | --- | --- | --- |
| 548 NM | 25.7 10^3 cm^-1 M^-1 | 518 NM | 23.2 10^3 cm^-1 M^-1 | 574 NM | 44.9 10^3 cm^-1 M^-1 | 587 NM | 556 NM | 636 NM | 581 NM | ~0.20 | 7.5 |  | CN(C)c1ccc2c(c1)Oc1c(ccc3cc(O)ccc13)C21OC(=O)c2cc(C(=O)O)ccc21 (centres unmarked) [Compound 8, 5'-carboxy-10-dimethylamino-3-hydroxy-spiro[7H-benzo[c]xanthene-7,1'(3'H)-isobenzofuran]-3'-one] |  |  |  |  |  |  |
| 508 NM | 28.5 10^3 cm^-1 M^-1 | 479 NM | 22.8 10^3 cm^-1 M^-1 | 537 NM | 44.4 10^3 cm^-1 M^-1 | 543 NM | 514 NM | 623 NM | 543 NM | ~0.35 |  | 7.80 | 5'-(and-6')-carboxy-3,10-dihydroxy-spiro[7H-benzo[c]xanthene-7,1'(3'H)-isobenzofuran]-3'-one [Compound 2] |  |  |  |  |  |  |
| 569 NM | 19.4 10^3 cm^-1 M^-1 | 529 NM | 22.2 10^3 cm^-1 M^-1 | 587 NM | 38.7 10^3 cm^-1 M^-1 | 599 NM | 530 NM | 630 NM | 590 NM | ~0.35 | 7.9 |  | O=C(O)c1ccc2c(c1)C(=O)OC21c2cc3c4c(c2Oc2c1ccc1cc(O)ccc21)CCCN4CCC3 (centres unmarked) [Compound 11, [h,i]julolidino-spiro[7H-benzo[c]xanthen-7,1'(3'H)-isobenzofuran]-3'-one] |  |  |  |  |  |  |
